Results on two compounds are retold here after patent US20160296529A1, “AMINOTRIAZOLOPYRIDINE FOR USE IN THE TREATMENT OF INFLAMMATION, AND PHARMACEUTICAL COMPOSITIONS THEREOF” (priority 2012, published 2016).

In data set [1] the test system is hepatocytes of mouse. In words: In vitro metabolism study in hepatocytes, mouse. The format is in vitro ADME. Particulars: mouse hepatocyte suspension, 24 h incubation of 100 μM [14C]-Formula II. As to the method:
(§1) Hepatocyte stability (Concentrations of the compound according to Formula II and its main metabolites (as % of total radioactivity) after 24 h incubation of 100 μM [^14C]-Compound according to Formula II in hepatocyte suspension of different species)

The test system of data set [2] is hepatocytes of dog. The experiment in a line: In vitro metabolism study in hepatocytes, dog. Type of data set: in vitro ADME. Particulars: dog hepatocyte suspension, 24 h incubation of 100 μM [14C]-Formula II. As to the method:
as §1

The nature of data set [3]: Single dose pharmacokinetics in animals, rabbit. The format is in vivo, New Zealand White rabbits. As to the method: (§2) Pharmacokinetic studies were performed in various animal species dosed with the compound according to Formula II to determine the exposure to the compound according to Formula I as well as its apparent terminal half life (T1/2), when possible.
Sprague-Dawley rats (male, 200-250 g), CD1 mice (male, 25-30 g), Beagle dogs (male, 9-10 kg), Göttingen minipigs (male, […]) were acclimatized for at least 7 days before treatment and were kept on a 12 hr light/dark cycle (07 h00-19 h00).
Temperature was maintained at approximately 22° C., and food and water were provided ad libitum. […]
(§3) Blood samples were collected over a 24-h period via the jugular vein (dog, minipig), ear blood vessel (rabbit), cardiac puncture (mouse) or retro-orbital sinus (rat) with lithium heparin as anti-coagulant. Whole blood samples were centrifuged and the resulting plasma samples were stored at −20° C. pending analysis.
(§4) Plasma concentrations of the compound according to Formula I and of the compound according to Formula II were determined by an LC-MS/MS method with a limit of quantification ≦10.0 ng/mL for both Formula I and Formula II for all species.
(§5) Pharmacokinetic parameters were calculated using a statistical analysis package (WinNonLin (Pharsight, Sunnyvale, Calif.: CA 94086, USA).

The nature of data set [4]: Single dose pharmacokinetics in animals, minipig. Type of data set: in vivo, Göttingen minipigs. The conditions noted are these: after Formula II 30 mg/kg oral; for AUC: male, Göttingen, plasma, read-out: exposure (expressed as AUC). As to the method:
as §2
Sprague-Dawley rats (male, 200-250 g), CD1 mice (male, 25-30 g), Beagle dogs (male, 9-10 kg), Göttingen minipigs (male, 10-15 kg) and New Zealand White rabbits (male, 3-5 kg) were acclimatized for at least 7 days before treatment and were kept on a 12 hr light/dark cycle (07 h00-19 h00).
Temperature was maintained at approximately 22° C., and food and water were provided ad libitum.
The compound according to Formula II was formulated in 0.5% methylcellulose and dosed orally to 3 animals (or 3 mouse/time points) as a single esophageal gavage at dose ranging from 15 to 45 mg/kg under a dosing volume of 5 or 10 mL/kg.
as §3, §4, §5

The nature of data set [5]: Repeated dose pharmacokinetics in human. The format is in vivo. Particulars: for Ratio I/II (AUC Formula I : AUC Formula II) / AUC: human, steady state; for half-life at 10 days: oral, human plasma, repeated dose of Formula II (25-100 mg BID or 200-450 mg QD) for 10 days, read-out: mean apparent terminal elimination half-life; for AUC: plasma, po, read-out: Exposure (expressed as AUC). As to the method:
Subjects received repeated dose (25, 50 and 100 mg BID or 200, 300 and 450 mg QD) of the compound according to Formula II as capsules after a standard breakfast for 10 days.
Serial blood samples were collected over 12 h (BID regimen) or 24 h (QD regimen) on day 1 and 10 to determine plasma concentrations of the compounds according to Formula II and Formula I using a validated liquid chromatography-mass spectrometry/mass spectrometry (LC-MS/MS) method with a limit of quantification of 1.00 ng/mL for both Formula. PK parameters were assessed using a statistical analysis package (WinNonLin (Pharsight, Sunnyvale, Calif.: CA 94086, USA).
Mean plasma concentration-time profiles of the compound according to Formula II and the compound according to Formula I were measured.
In order to show the comparative exposures of the two compounds, the AUC of the compounds according to Formula I and the compound according to Formula II were calculated. The AUC value represents the steady state exposure of the compounds after repeated dosing. The ratio of AUC of the compound according to Formula I:AUC of the compound according to Formula II is display in Table VII.

Where [6] appears, read: male, New Zealand White, plasma, after Formula II 20 mg/kg oral, read-out: exposure (expressed as AUC).

Turning to `Nc1nc2cccc(-c3ccc(CN4CCS(=O)(=O)CC4)cc3)n2n1` [Formula I, 5-[4-(1,1-Dioxothiomorpholin-4-ylmethyl)-phenyl]-[1,2,4]triazolo[1,5-a]pyridin-2-ylamine], the “In vitro metabolic profile of Formula II (as % of total radioactivity)” value in data set [1] was 14%; in data set [2], 5.7%. Further, the AUC was determined as 777 µg·h/mL in data set [3] (New Zealand White, plasma, female, Formula I 125 mg/kg single oral dose, read-out: AUC); 1030 µg·h/mL in data set [3] (New Zealand White, plasma, female, Formula I 250 mg/kg single oral dose, read-out: AUC); 10 µg·h/mL in data set [3] (setting [6]); 16.7 µg·h/mL in data set [4]; 8.66 µg·h/mL in data set [5] (Formula II 25 mg BID); 15.2 µg·h/mL in data set [5] (Formula II 50 mg BID). For the same compound, the AUC in data set [5] (Formula II 100 mg BID) is 41.1 µg·h/mL; in data set [5] (Formula II 200 mg QD), 70 µg·h/mL; in data set [5] (Formula II 300 mg QD) it was 66.1 µg·h/mL; in data set [5] (Formula II 450 mg QD) it was 102 µg·h/mL. For the same compound, the “Ratio I/II of exposure (AUC Formula I : AUC Formula II)” value is recorded as 0.38 in data set [3] (after Formula II 20 mg/kg oral) and 0.88 in data set [4]. Moreover, in data set [3] (male, New Zealand White, plasma, oral, upon administration of Formula II, read-out: apparent terminal elimination half-life (converted)), the half-life is 4.6 h. The “Ratio I/II (AUC Formula I : AUC Formula II)” value is reported as 24.4 in data set [5] (Formula II 25 mg BID); 20.5 in data set [5] (Formula II 50 mg BID); 18.3 in data set [5] (Formula II 100 mg BID); 16.1 in data set [5] (Formula II 200 mg QD); 15.0 in data set [5] (Formula II 300 mg QD); 10.1 in data set [5] (Formula II 450 mg QD). The half-life at 10 days in data set [5] fell in the range of 22 to 27 h.

For `O=C(Nc1nc2cccc(-c3ccc(CN4CCS(=O)(=O)CC4)cc3)n2n1)C1CC1` [Formula II, Cyclopropanecarboxylic acid {5-[4-(1,1-dioxo-thiomorpholin-4-ylmethyl)-phenyl]-[1,2,4]triazolo[1,5-a]pyridin-2-yl}-amide], the “In vitro metabolic profile of Formula II (as % of total radioactivity)” value in data set [1] is reported as “at least 80%”; in data set [1] (listed as drawing 10), 85%; in data set [2] it was “at least 80%”; in data set [2] (listed as drawing 10), 93%. Also, the AUC came out at 26 µg·h/mL in data set [3] (setting [6]); 19.1 µg·h/mL in data set [4]; 0.346 µg·h/mL in data set [5] (Formula II 25 mg BID); 0.758 µg·h/mL in data set [5] (Formula II 50 mg BID); 2.38 µg·h/mL in data set [5] (Formula II 100 mg BID); 4.45 µg·h/mL in data set [5] (Formula II 200 mg QD). In addition, the AUC in data set [5] (Formula II 300 mg QD) came to 4.4 µg·h/mL; in data set [5] (Formula II 450 mg QD), 10.2 µg·h/mL. For the same compound, in data set [5], the half-life at 10 days lay within 4 to 11 h.
